This experiment deals with Plasmodium falciparum. The experiment is described as follows: GSK_TCMDC: Inhibition of Plasmodium falciparum 3D7 in whole erythrocytes, using parasite LDH activity as an index of growth. Format: functional, organism-based. The note with it: Plasmodium falciparum, 3D7.

In turn, `CNCCc1c(O)ccc2ccccc12` came in with an XC50 of 804 nM.
For `CC1CCN(CC[C@H]2CCCN2S(=O)(=O)c2cccc(NC(=O)Nc3ccc(C(F)(F)F)cc3)c2)CC1` the value was 722 nM.
For `COc1ccc(C(=O)CCC(=O)N(Cc2ccc(-c3ccc(CNCCc4ccc(S(C)(=O)=O)cc4)cn3)cc2)C2CCN(Cc3ccccc3)CC2)cc1F` the value was 437 nM; for `CN1CCN(c2ccnc3ccc(NC(=O)Nc4ccc5c(c4)CCCC5=O)cc23)CC1`, 132 nM; for `O=C(Nc1ccc(OC2CCN(Cc3ccccc3)C2)c(Cl)c1)c1ccco1` (stereo unspecified), 406 nM.
For `COc1cccc(CCNc2nc(NCc3ccccc3)c3cc(OC)c(OC)cc3n2)c1` the value was 321 nM; for `Cc1ccc2nc(C)cc(N/N=C/c3ccccc3[N+](=O)[O-])c2c1`, 166 nM.
For `O=C(NCc1cccc2ccccc12)[C@@H]1CCCN1C(=O)c1ccc(O)c(-c2ccc(Cl)c(Cl)c2)c1`, the XC50 came to 948 nM.
For `CCc1cn2c3c(cc(C(=O)N[C@@H](Cc4ccccc4)[C@H](O)CNC(C)(C)CCCC(C)C)cc13)N(C)S(=O)(=O)C2` the value was 240 nM; for `O=c1cc(NCCCNCc2cc3c(Cl)cccc3s2)[nH]c2ccccc12`, 474 nM; for `Nc1cccc(C=CC(=O)N=c2cc[nH]c3ccccc23)c1`, 1060 nM.
For `CCC(=O)N(c1ccccc1)C1CCN(CCCC(NC(=O)Nc2cc(C(F)(F)F)cc(C(F)(F)F)c2)c2ccc(Cl)c(Cl)c2)CC1` (stereo unspecified) the value was 672 nM; for `CCCN(CCC)S(=O)(=O)c1ccc(C(=O)Nc2nc3ccc(-c4cc(=O)[nH]c(Nc5ccccc5Cl)n4)cc3[nH]2)cc1`, 594 nM; for `COc1cccc(-c2ccc(C(=O)NC3CCN(Cc4ccc(C(C)(C)C)cc4)CC3)s2)c1`, 1600 nM.
Then `Clc1cccc(CNC2CCN(CC3CCCCC3)CC2)c1`, with 912 nM; and `COc1ccc(CCN2CCC(CN(C)Cc3cnn(-c4ccccc4)c3)CC2)cc1`, with 1160 nM.
The molecule `CN(C)CCOc1ccc(N2CCN(CCCCNC(=O)c3ccc(/C=C/c4cc(Cl)cc(Cl)c4)cc3)CC2)cc1` came in with an XC50 of 1000 nM.
Regarding `CC(Sc1nc2sccc2c(=O)n1C)C(=O)Nc1ccc2c(c1)OCO2` (stereo unspecified), the XC50 stood at 1040 nM.
Molecule `COc1cc(Cc2cnc(N)nc2N)cc(OCCCCNS(=O)(=O)C(F)(F)F)c1OC` registered an XC50 of 1040 nM.
Turning to `CS(=O)(=O)c1cccc2sc(N3CCN(C(=O)c4ccc([N+](=O)[O-])o4)CC3)nc12`, the XC50 was determined as 1240 nM.
For `Cc1cccc2nc(-c3ccc(-c4ccc(NC(=O)CN5CCN(C)CC5)cc4)s3)[nH]c12` the value was 1020 nM.
Molecule `COc1ccccc1C1CCN(C2CCC(NC(=O)c3cc4ccccc4[nH]3)CC2)CC1` (stereo unspecified) gave an XC50 of 1210 nM.
Then `Brc1cc(Br)c2c(c1)C(NCCCNC1CCNc3c(Br)cc(Br)cc31)CCN2` (stereo unspecified), with 823 nM; and `CCC[C@@H]1CCN[C@H]([C@H](O)c2ccnc3ccc(OC)cc23)C1`, with 726 nM.
For `COc1cc(C)nc2ccc(NC(=O)Nc3ccc4nc(C)cc(OC)c4c3)cc12` the value was 548 nM; for `CC(C)CNC(=O)c1ccnc(-c2ccc(CNCCCc3ccccc3)cc2)c1`, 728 nM.
For `Cc1ccc(S(=O)(=O)N(C)c2ccccc2C(=O)Nc2ccccc2Oc2ccccc2)cc1` the value was 919 nM; for `CN(Cc1ccc(NC(=O)CCC2CCN(C(=O)/C=C/c3ccc(Cl)c(Cl)c3)CC2)cc1)C1CCOCC1`, 1730 nM.
Molecule `CCCn1cc2c(ccc3nc(N)nc(N)c32)n1` gave an XC50 of 81.4 nM.
Then `CC(C)N1CCN(C(CN2CCN(CCCOc3cccc(-c4ccccc4)c3)CC2)c2ccc(F)cc2)CC1` (stereo unspecified), with 892 nM; and `CN(c1ccc(NC(=O)Nc2cc(C(F)(F)F)ccc2F)cc1)c1ccnc(NCCN2CCOCC2)n1`, with 512 nM.
For `COc1ccc(C2CCN(CCCCNC(=O)c3ccc(NC(=O)c4ccc(Cl)cc4)cc3)CC2)cc1Cl` the value was 843 nM; for `O=C(/C=C/c1ccc(F)cc1)NC1CCC(CCN2CCc3ccccc3CC2)CC1` (stereo unspecified), 1400 nM.
With `CC(C)Cc1cn(-c2nc(-c3nc4ccccc4[nH]3)cs2)c2cc(Cl)ccc12`, the XC50 was 483 nM.
For `N#Cc1cncc(-c2nc3c(N4CCN(c5cnccn5)CC4)cccc3n2CCNCc2ccccc2)c1` the value was 912 nM; for `COC(=O)c1cccc(CNCc2ccc(-c3cccc(-c4nc5cccc(C)c5[nH]4)c3)cc2)c1`, 306 nM; for `CCOC(=O)c1nc(-c2cc(Cl)nc(Cl)c2)[nH]c1NC(=S)NCc1ccc(NS(C)(=O)=O)cc1`, 892 nM.
Molecule `Nc1ncnc2occ(-c3ccc(NC(=O)Nc4cc(C(F)(F)F)ccc4F)cc3)c12` [GW770249A] showed an XC50 of 1720 nM.
Then `O=C(Nc1ccc(C(F)(F)F)cc1)Nc1cccc([N+](=O)[O-])c1`, with 865 nM; and `CCCCCc1cc(OC(=O)CCCN(CC)CC)c2c(c1)OC(C)(C)C=C2C1=CCN(Cc2ccc3ccccc3c2)CC1`, with 156 nM; and `COc1cccc(CN2CCCC(CCC(=O)Nc3ccc(C(F)(F)F)cc3)C2)c1O` (stereo unspecified), with 747 nM.
`Cc1ccc(Cc2c[nH]c(NCCSCc3ccc(CN4CCOCC4)o3)nc2=O)cn1` gave an XC50 of 1070 nM.
Then `O=C(/C=C/c1ccc(Cl)c(Cl)c1)NCCCCCN1CCCN(C(=O)Nc2cccc(C(F)(F)F)c2)CC1`, with 866 nM; and `CN(C)C(=O)c1ccc(CN(Cc2ccc3c(c2)OCCO3)Cc2ccc3c(c2)OCO3)cc1`, with 175 nM; and `CO/C(=C/C=C/c1cc2cc(Cl)c(Cl)cc2[nH]1)C(=O)NC1CC(C)(C)N(C)C(C)(C)C1`, with 783 nM.
For `COc1ccc(OCCCN2CCCCC2)cc1S(=O)(=O)c1ccc(OCc2ccc(C(F)(F)F)cc2)cc1` the value was 1010 nM; for `CC(C)N(C(=O)CSc1nc2cc(Cl)ccc2c(=O)n1Cc1ccccc1)C(C)C`, 167 nM; for `c1ccc(CNCc2ccc(-c3cccc(-c4nc5ccccc5[nH]4)c3)cc2)cc1`, 422 nM.
The molecule `CN1CCN(c2cc(-c3cccnc3)nc(-c3ccncc3)n2)CC1` showed an XC50 of 554 nM.
Then `CC1(C)C(=O)Nc2ccccc2N1C(=O)CN1CCN(c2ccccc2O)CC1`, with 1070 nM.
Then `COc1ccc(Nc2nccc(-c3cccc(NC(=O)c4cc5cc(F)ccc5[nH]4)c3)n2)cc1`, with 1030 nM; and `COc1ccc(CN(C)CC(O)COc2ccc(NC(=O)c3cccc4c(=O)c5cccc(OC)c5[nH]c34)cc2)cc1OC` (stereo unspecified), with 780 nM; and `CC1(C)S(=O)(=O)CC(O)CS1(=O)=O`, with 467 nM.
Then `c1ccc2c(C3CCN(CCCCOc4ccc5c(c4)CCN(C4CCC4)CC5)CC3)c[nH]c2c1`, with 705 nM.
As to `CC(=O)C1(c2ccccc2)CCN(CCC2(c3ccc(Cl)c(Cl)c3)CN(C(=O)C3CCCC3)CCO2)CC1` (stereo unspecified), the XC50 stood at 798 nM.
Then `COc1ccc2nc(SC(C)C(=O)c3c[nH]c4ccccc34)[nH]c2c1` (stereo unspecified), with 1280 nM; and `CCC(C)c1ccc(O)c(NC(=O)c2cncc(Br)c2)c1` (stereo unspecified), with 804 nM.
Then `O=C(N/C=N/c1cc([N+](=O)[O-])c(-c2cccnc2)n1-c1ccc(O)cc1)c1ccccc1`, with 299 nM.
For `CC[C@H](NC(=O)c1ccc(NC(=O)OC(C)(C)C)cc1)C(=O)N[C@@H](CO)C(=O)NCCCCc1ccccc1` the value was 830 nM.
In turn, `CCCCOc1ccc(/C=C/c2ccc(-c3c(C)[nH]c(C)c(Cl)c3=O)s2)cc1` had an XC50 of 395 nM.
`Cc1ccc2nc(C)cc(N/N=C/c3cccc([N+](=O)[O-])c3)c2c1`: the XC50 was determined as 876 nM.

The record behind these values is ChEMBL document CHEMBL1157539, “Thousands of chemical starting points for antimalarial lead identification” (Nature, 2010).
